Laboratory results as given in patent publication US20250120905A1, “THERAPEUTIC AGENTS TARGETING THE LYMPHATIC SYSTEM” (VIVASOR, INC, priority 2021, published 2025).

Assays:
[1] = system: patients with moderately to severely active Rheumatoid Arthritis (RA); experiment: Phase 1b study of Enbrel administered by SOFUSA: DAS28 (ESR/CRP) disease activity scores; type: in vivo, human; details: Patient ID 01-002
Description: (§1) An exemplary Sofusa Lymphatic Delivery System (SOFUSA) was designed to access the lymphatic system directly through the skin at the epidermal/dermal boundary (See FIG. 1) such that the infusion accessed afferent lymphatic capillaries when employed as described in Examples 2 and 3, below. The exemplary SOFUSA system was comprised of a microneedle device (see, e.g., FIG. 3A) and a syringe pump configured to administer anti-arthritic therapeutic agent, such as Enbrel, into the lymphatic circulation through the skin. This configuration was optimized to provide flow rates and pharmacokinetics using lymphatic anti-arthritic drug delivery in early phase clinical trials. The exemplary SOFUSA device was attached to the body of subjects via an attachment system that domed the skin upwards for consistent microneedle penetration, and a nylon strap with Velcro® that comfortably held the device down on the skin, keeping the microneedles in position until the dosing was complete (See, e.g., FIG. 2). Dose volume and infusion rate were set with an infusion pump (See, e.g., FIG. 2).
(§2) SOFUSA microneedles were arranged into an array and placed on the skin using a mechanical impact applicator. A solution comprising Enbrel at a concentration of approximately 50 milligrams per milliliter (50 mg/mL) was then administered at a controlled infusion rate into the device, through the microneedles and into the skin using an external syringe pump. The solution comprising Enbrel was delivered into the body at an infusion rate of 0.5 milliliters per hour (mL/hr), which corresponded to an infusion period of one hour to deliver a 25 mg dose and 2 hours to deliver a 50 mg dose.
(§3) In this ongoing Phase 1b study, 25 mg of Enbrel (50% of the non-SOFUSA delivered subcutaneous dose) was administered lymphatically once weekly via SOFUSA to patients for 12 weeks. The study design calls for an increase in the SOFUSA-administered Enbrel dose to 50 mg during the dose escalation phase of the study (weeks 4-8) provided that dose escalation criteria are met. Patients remain on either the 25 mg or 50 mg dose for the final maintenance phase of the study. The dose escalation criteria for the Enbrel dose to be increased from 25 mg to 50 mg are: a DAS28 (ESR)≥3.2 and an increase in DAS28 (ESR)>0.6 compared to baseline.
(§4) Patients entered in the study had been treated with subcutaneous Enbrel with or without continuation of MTX, and have had either a primary (lack of sufficient efficacy with initial treatment) or secondary (initial efficacy but became inefficacious over time) inadequate response with the maximum approved dose of Enbrel. […] To the extent that inadequate response to Enbrel in some patients may be due to insufficient Enbrel levels in target lymphoid tissues or an inadequate immunologic response, Enbrel administered into the lymphatic system via SOFUSA was therefore theorized to provide a favorable clinical response despite an inadequate response to subcutaneous Enbrel administration.
(§5) This patient received SOFUSA-administered Enbrel at a 25 mg dosage once weekly for 12 weeks. Each week, SOFUSA was applied to the dorsal forearm with alternating left and right arm locations and the SOFUSA-administered Enbrel solution was infused through the skin into the lymphatic circulation for one hour.
Disease Activity Scores (DAS) 28 (DAS28) DAS28) were calculated based on 28 tender and swollen joints, Patient Global Assessment of Disease Activity, and C-Reactive Protein (CRP) or Erythrocyte Sedimentation Rate (ESR). DAS28 (ESR) and DAS28 (CRP) scores for Patient ID 01-002 are shown in FIG. 4A and FIG. 4B, respectively.

[2] = system: patients with moderately to severely active Rheumatoid Arthritis (RA); experiment: Phase 1b study of Enbrel administered by SOFUSA: tender and swollen joint counts; type: in vivo, human
Description: as §1, §2, §3, §4, §5
Joint counts were performed every 2 weeks. There was observed a consistent decrease in the number of tender and swollen joints using both 66/68 and 28 joint count criteria for the entire 12-week dosing period (See FIG. 5A and FIG. 5B, respectively).

[3] = system: patients with moderately to severely active Rheumatoid Arthritis (RA); experiment: Phase 1b study of Enbrel administered by SOFUSA: DAS28 (ESR/CRP) disease activity scores; type: in vivo, human; details: Patient 01-004; SOFUSA Enbrel 25 mg once weekly; indicative of remission
local lymphatic function = experiment: Near-Infrared Fluorescence (NIRF) lymphatic imaging with Indocyanine Green; type: in vivo, human
Protocol: The local lymphatic function was measured using Near-Infrared Fluorescence (NIRF) imaging techniques with Indocyanine Green (ICG) at the beginning, at 6 weeks, and at the end of the study. […] The ICG was delivered at the opposite arm location as the Enbrel dosing.
In this regard, it has been speculated that lymphatic dysfunction may encourage the development of rheumatic autoimmune diseases such as scleroderma, lupus, and rheumatoid arthritis (see, e.g., Aletaha, D., et al., Ann. Rheum. Dis., 75, 1479-1485 (2016)). […] NIRF imaging of the lymphatics after infusion of a solution of ICG at the beginning, middle and end of the study. NIRF imaging was used to assess lymphatic pumping in RA patients before and after treatment with SOFUSA with Enbrel. Additionally, the imaging provided a visualization of the lymphatic vessels and was intended to confirm that SOFUSA delivers ICG solution directly into the lymphatics.

[4] = system: patients with moderately to severely active Rheumatoid Arthritis (RA); experiment: Phase 1b study of Enbrel administered by SOFUSA: patient/physician disease activity and pain Visual Analog Scale; type: in vivo, human; details: for Patient Assessment of Pain (VAS) decrease / Patient Global Assessment of Disease Activity (VAS) decrease / Physician Global Assessment of Disease Activity (VAS) decrease: SOFUSA Enbrel 25 mg once weekly for 12 weeks
Description: as §1, §2, §3, §4, §5
Ratings were performed by each patient and physician on a Visual Analog Scale (VAS) every 2 weeks for disease activity (patient and physician) and disease-related pain (patient). […] In addition, the Patient Assessment of Pain for Patient ID 01-002 decreased from 46 mm at week 0 to 29 mm at week 12 (i.e., 37.0% decrease). The Physician Global Assessment of Disease Activity for Patient ID 01-002 decreased substantially from 50 mm at week 0 to 15 mm at week 12, corresponding to a 70.0% decrease in disease activity.

patients with RA = details: cited from earlier work
[5] = Etanercept lymph node concentrations after IV, SC, ID or lymphatic (Sofusa) delivery; type: in vivo; details: for etanercept concentration in lymph nodes, lymphatic (Sofusa) vs IV administration: percentage initial dose per gram of lymph tissue
Protocol: Etanercept was administered to subjects either via intravenous (IV), subcutaneous (SC), Intradermal (ID), or lymphatic (Sofusa) delivery. Average etanercept concentrations (expressed as percentage initial dose per gram of lymph tissue) in lymph node tissue was then determined at twelve and 36 hours post-administration. […] In particular, etanercept concentrations at 12 hours post lymphatic (Sofusa) administration were approximately 40-fold greater, and approximately 9-fold greater at 36 hours, than etanercept concentrations administered via IV.
Methods and procedures for some of these experiments have been adapted from Aldrich, et al., Arthritis Res. Ther., (2017), 19:116 (DOI 10.1186/s13075-017-1323-z; Open Access) which is incorporated by reference herein in its entirety for all purposes.

[6] = system: patients with moderately to severely active Rheumatoid Arthritis (RA); experiment: Phase 1b study of Enbrel administered by SOFUSA: ACR response; type: in vivo, human; details: week 10 vs baseline (week 0); Patient 01-002 and Patient 01-004; SOFUSA Enbrel 25 mg once weekly
Description: as §1
SOFUSA microneedles were arranged into an array and placed on the skin using a mechanical impact applicator. […]

[7] = before SOFUSA dosing, inadequate response to weekly 50 mg Enbrel subcutaneous
[8] = Patient 01-002, by week 12 of the study
[9] = Patient ID 01-002 (FIG. 5), week 0 to week 12, SOFUSA Enbrel 25 mg once weekly
[10] = Patient ID 01-004, SOFUSA Enbrel 25 mg once weekly for 12 weeks
[11] = Patient ID 01-006, SOFUSA Enbrel 25 mg once weekly for 12 weeks
[12] = Patient ID 01-002, SOFUSA Enbrel 25 mg once weekly
[13] = Patient ID 01-002, before SOFUSA dosing
[14] = Patient ID 01-002, week 0 to week 12, SOFUSA Enbrel 25 mg once weekly

## etanercept [Enbrel]
[1]; SOFUSA Enbrel 25 mg once weekly, baseline 4.58
  DAS28 (ESR) at week 12: 3.02
[1]; SOFUSA Enbrel 25 mg once weekly, baseline 4.99
  DAS28 (CRP) at Week 12: 3.12
[1]; SOFUSA Enbrel 25 mg once weekly, week 12 vs baseline 4.58
  DAS28 (ESR) decrease from baseline: 34.1%
[1]; SOFUSA Enbrel 25 mg once weekly, week 12 vs baseline 4.99
  DAS28 (CRP) decrease from baseline: 37.5%
[1]; after 10 weekly 25 mg SOFUSA Enbrel doses, level of remission
  DAS28 (ESR) at Week 10 (lowest achieved): 2.10
[1]; [7]
  DAS28 (CRP) at baseline: 4.99
  DAS28 (CRP) at screening: 4.94
  DAS28 (ESR) at baseline: 4.58
  DAS28 (ESR) at screening: 4.62
[2]; [8]
  SJC66 decrease (ACR response section): 55.6%
  TJC68 decrease (ACR response section): 58.8%
[2]; [9]
  decrease in number of swollen joints, 28-Joint Count: 28.6%
  decrease in number of swollen joints, full 66-Joint Count: 44.4%
  decrease in number of tender joints, 28 Joint Count: 90.9%
  decrease in number of tender joints, full 68-Joint Count: 70.6%
[2]; [10]
  SJC66 decrease: 66.7%
  TJC68 decrease: 60.0%
[2]; [11]
  SJC66 change: unchanged
  TJC68 decrease: 70.6%
[3]
  DAS28 (ESR) at week 10: 2.10
Local lymphatic function; week 0, before SOFUSA treatment, ICG at opposite arm
  lymphatic pump rate at week 0: less than 0.5 pumps per minute
Local lymphatic function; week 6, after 6 SOFUSA Enbrel doses, vs week 0 (very few vessels visible)
  lymphatic vessels visible by NIRF imaging at week 6: significantly more lymphatic vessels could be imaged
Local lymphatic function; week 6, after 6 SOFUSA Enbrel doses, ICG at opposite arm
  lymphatic pump rate at week 6: greater than 2 pumps per minute
[4]; [8]
  Patient Assessment of Pain (VAS) decrease (ACR response section): 69.6%
  Patient Global Assessment of Disease Activity (VAS) decrease (ACR response section): 63.5%
  Physician Global Assessment of Disease Activity (VAS) decrease (ACR response section): 50.0%
[4]; [12]
  Patient Assessment of Pain (VAS) at week 12: 29 mm
  Patient Global Assessment of Disease Activity (VAS, 100 mm) at week 12: 21 mm
  Physician Global Assessment of Disease Activity (VAS) at week 12: 15 mm
[4]; [13]
  Patient Assessment of Pain (VAS) at week 0: 46 mm
  Patient Global Assessment of Disease Activity (VAS, 100 mm) at week 0: 52 mm
  Physician Global Assessment of Disease Activity (VAS) at week 0: 50 mm
[4]; [14]
  Patient Assessment of Pain, decrease: 37.0%
  Patient Global Assessment of Disease Activity, overall reduction: 59.6%
  Physician Global Assessment of Disease Activity, decrease: 70.0%
[4]; Patient ID 01-004
  Patient Assessment of Pain (VAS) decrease: 100.0%
  Patient Global Assessment of Disease Activity (VAS) decrease: 46.7%
  Physician Global Assessment of Disease Activity (VAS) decrease: 85.4%
[4]; Patient ID 01-004, week 10 of the study
  Patient Global Assessment of Disease Activity (VAS) decrease at week 10: 73.3%
[4]; Patient ID 01-006
  Patient Assessment of Pain (VAS) decrease: 98.9%
  Patient Global Assessment of Disease Activity (VAS) decrease: 97.1%
  Physician Global Assessment of Disease Activity (VAS) decrease: 75.4%
Patients with RA; Enbrel in combination with MTX, delivered systemically
  efficacy response rate, ACR70: < 50%
Patients with RA; Enbrel plus MTX, at 3 and 6 months, Enbrel prescribing information
  patients achieving ACR70: 15%
[5]; 12 and 36 hours post-administration, FIG. 12
  etanercept concentration in lymph nodes, lymphatic delivery compared to all other tested delivery routes (IV, SC, ID): far greater
[5]; 12 hours post administration
  etanercept concentration in lymph nodes, lymphatic (Sofusa) vs IV administration: approximately 40 fold
[5]; 36 hours post administration
  etanercept concentration in lymph nodes, lymphatic (Sofusa) vs IV administration: approximately 9 fold
[6]
  ACR 50% response: achieved
